In brackets after ≈: the same amount, converted by molar mass.
Columns and labels:
Assay in all cases: In vitro antibacterial activity, agar dilution MIC
Format in all cases: cell-based
[1] = test system: Haemophilus influenzae 588A; settings: H. influenzae 588A
Protocol: (§1) The antimicrobial spectra of a number of compounds of the invention were tested by the following method:
(§2) Twelve petri dishes containing successive aqueous dilutions of the test compound mixed with 10 ml of sterilized Brain Heart Infusion agar (Difco 0418-01-5) are prepared. Each plate is inoculated with 1:100 (or 1:10 for slow growing strains, primarily Micrococcus and Streptococcus) dilutions of up to 32 different microorganisms, using a Steers replicator block The inoculated plates are incubated at 35°-37° C. for 20-24 hours. In addition, a control plate, using BHI agar containing no test compound, is prepared and incubated at the beginning and end of each test.
(§3) An additional plate containing a compound having known susceptibility patterns for the organisms being tested and belonging to the same antibiotic class as the test compound is also prepared and incubated as a further control, as well as to provide test-to-test comparability. Erythromycin A was used for this purpose.
(§4) After incubation, each disk is read. The MIC is defined as the lowest concentration of drug yielding no growth, a slight haze, or sparsely isolated colonies on the inoculum spot as compared to the growth control.

[2] = test system: Haemophilus influenzae 747C; settings: H. influenzae 747C
Protocol: as §1, §2, §3, §4

[3] = test system: Haemophilus influenzae 504; settings: H. influenzae 504
Protocol: as §1, §2, §3, §4

[4] = test system: Haemophilus influenzae 751; settings: H. influenzae 751
Protocol: as §1, §2, §3, §4

[5] = test system: Haemophilus influenzae 667A; settings: H. influenzae 667A
Protocol: as §1, §2, §3, §4

[6] = test system: Haemophilus influenzae 519A; settings: H. influenzae 519A
Protocol: as §1, §2, §3, §4

[7] = test system: Haemophilus influenzae 1435; settings: H. influenzae 1435
Protocol: as §1, §2, §3, §4

[8] = test system: Haemophilus influenzae ATCC 10211; settings: ATCC10211, H. influenzae ATCC 10211
Protocol: as §1, §2, §3, §4

[9] = test system: Haemophilus influenzae SPK AMP R; settings: H. influenzae SPK AMP R
Protocol: as §1, §2, §3, §4

[10] = test system: Haemophilus influenzae 632A; settings: H. influenzae 632A
Protocol: as §1, §2, §3, §4

[11] = test system: Haemophilus influenzae SOL AMP R; settings: H. influenzae SOL AMP R
Protocol: as §1, §2, §3, §4

[12] = test system: Haemophilus influenzae ATCC 9795; settings: ATCC9795, H. influenzae ATCC 9795
Protocol: as §1, §2, §3, §4

[13] = test system: Haemophilus influenzae 1177; settings: H. influenzae 1177
Protocol: as §1, §2, §3, §4

[14] = test system: Haemophilus influenzae DILL AMP R; settings: H. influenzae DILL AMP R
Protocol: as §1, §2, §3, §4

[15] = test system: Haemophilus influenzae 566A; settings: H. influenzae 566A
Protocol: as §1, §2, §3, §4

[16] = test system: Haemophilus influenzae 503B; settings: H. influenzae 503B
Protocol: as §1, §2, §3, §4

[17] = test system: Haemophilus influenzae ATCC 19418; settings: ATCC19418, H. influenzae ATCC 19418
Protocol: as §1, §2, §3, §4

Row | SMILES | MIC [1] [µg/mL] | MIC [2] [µg/mL] | MIC [3] [µg/mL] | MIC [4] [µg/mL] | MIC [5] [µg/mL] | MIC [6] [µg/mL] | MIC [7] [µg/mL] | MIC [8] [µg/mL] | MIC [9] [µg/mL] | MIC [10] [µg/mL] | MIC [11] [µg/mL] | MIC [12] [µg/mL] | MIC [13] [µg/mL] | MIC [14] [µg/mL] | MIC [15] [µg/mL] | MIC [16] [µg/mL] | MIC [17] [µg/mL]
1 | CC[C@H]1OC(=O)[C@H](C)[C@@H](O[C@H]2C[C@@](C)(OC)[C@@H](O)[C@H](C)O2)[C@H](C)[C@@H](O[C@@H]2O[C@H](C)C[C@H](N(C)C)[C@H]2O)[C@](C)(O)C[C@@H](C)[C@@H](N2CCC(OC)(OC)CC2)[C@H](C)[C@@H](O)[C@]1(C)O [Example 27] | 1 (≈ 1.16 µM) | 1 (≈ 1.16 µM) | 1 (≈ 1.16 µM) | 2 (≈ 2.32 µM) | 1 (≈ 1.16 µM) | 0.25 (≈ 0.29 µM) | 0.25 (≈ 0.29 µM) | 0.5 (≈ 0.579 µM) | 1 (≈ 1.16 µM) | 1 (≈ 1.16 µM) | 1 (≈ 1.16 µM) | 1 (≈ 1.16 µM) | 0.06 (≈ 0.0695 µM) | 0.5 (≈ 0.579 µM) | 1 (≈ 1.16 µM) | 1 (≈ 1.16 µM) | 1 (≈ 1.16 µM)
2 | CC[C@H]1OC(=O)[C@H](C)[C@@H](O[C@H]2C[C@@](C)(OC)[C@@H](O)[C@H](C)O2)[C@H](C)[C@@H](O[C@@H]2O[C@H](C)C[C@H](N(C)C)[C@H]2O)[C@](C)(O)C[C@@H](C)[C@@H](N2CCC(=O)CC2)[C@H](C)[C@@H](O)[C@]1(C)O [Example 28] | 1 (≈ 1.22 µM) | 0.5 (≈ 0.612 µM) | 1 (≈ 1.22 µM) | 2 (≈ 2.45 µM) | 1 (≈ 1.22 µM) | 0.25 (≈ 0.306 µM) | 0.25 (≈ 0.306 µM) | 5 (≈ 6.12 µM) | 0.5 (≈ 0.612 µM) | 2 (≈ 2.45 µM) | 0.5 (≈ 0.612 µM) | 1 (≈ 1.22 µM) | 0.25 (≈ 0.306 µM) | 0.5 (≈ 0.612 µM) | 2 (≈ 2.45 µM) | 0.25 (≈ 0.306 µM) | 1 (≈ 1.22 µM)
